Structures can show the parent of a compound that is named as a salt. Where two headings read alike, the source gives them in different places.
Columns and labels:
[1] = tested on: Trypanosoma cruzi Strain Y trypomastigotes; test: Trypanocidal assay: trypomastigotes pre-incubated with test compound, then added to HSVSM cell culture; type: cell-based; details: for percent of cells infected relative to untreated control at 0.5 µM / percent of cells infected relative to untreated control at 1 µM / percent of cells infected relative to untreated control at 5 µM / percent of cells infected relative to untreated control at 10 µM: Trypanosoma cruzi, read-out: percentage of cells infected by pre-treated trypomastigotes relative to untreated controls
Description: (§1) Human saphenous vein smooth muscle (HSVSM) cells are isolated from outgrowths of explants of unused portions of veins harvested for coronary artery bypass surgery as described previously by Warner et al., J. Exp. Med., 165, 1316-1331 (1987). The cells are maintained in DME medium containing 5.5 mM glucose, 25 mM HEPES and 10% FBS (Hy-Clone Laboratories,Logan, Utah). Trypanosoma cruzi Strain Y trypomastigotes are propagated as described previously by Libby et al., J. Clin. Invest., 77, 127-135 (1986), except that HSVSM cells are used in place of bovine aortic smooth muscle cells.
Test compounds are dissolved in 0.3 ml DMSO and brought to volume by dilution with serum-free DME medium. Solutions are sterilized by filtration through 0.22 μm filter units. Trypomastigotes (10^7 ml^-1) are harvested and washed twice in serum-free DME medium. Parasites are added to solutions of the test compounds to a final concentration of 10^6 ml^-1 and incubated for 3 hours at 37° C. in a 5% CO2 atmosphere. After incubation with the test compound, 0.1 ml of the parasite suspension (10^5 organisms) is diluted with 0.4 ml cell culture medium and added to a culture of HSVSM cells. After 16 hours, the HSVSM cells are washed to remove non-internalized trypomastigotes and resupplied with fresh culture medium. Infections are followed for 4-7 days by light microscopy.
Trypomastigotes were pre-incubated with a test compound or a prior art compound as described above. Results are expressed as the percentage of cells infected by pre-treated trypomastigotes relative to untreated controls.

trypomastigotes = test: Ongoing infection model in human smooth muscle cells infected with trypomastigotes; type: cell-based, Trypanosoma cruzi; details: compound incubated 16 hours, counted 5 days after initial infection, untreated 1.85 × 10^7
Description: as §1
The effects of the compounds of the present invention have also been tested in an ongoing infection model. […] The cells are then incubated for 48 hours after which time the test compounds are added to the cultures and incubated for 16 hours. After 16 hours, the treated culture media is replaced with drug-free fresh media and cell culture is continued for a further 24 hours. Levels of parasitemia in the treated and untreated cultures are then examined.
*Number of trypomastigotes/ml counted swimming above the HSVM cell
monolayer 5 days after initial infection.

trypanothione reductase = trypanothione reductase (Crithidia fasciculata, UniProt P39040); test: Incubation of trypanothione reductase with compound under aerobic and anaerobic conditions, dialysis, then T(S)2 reductase assay; type: biochemical, C. fasciculata; details: 0.277778 h, pH 7.8, read-out: loss of T(S)2 reductase activity relative to the aerobic control
trypanothione reductase, sequence (P39040 whole entry): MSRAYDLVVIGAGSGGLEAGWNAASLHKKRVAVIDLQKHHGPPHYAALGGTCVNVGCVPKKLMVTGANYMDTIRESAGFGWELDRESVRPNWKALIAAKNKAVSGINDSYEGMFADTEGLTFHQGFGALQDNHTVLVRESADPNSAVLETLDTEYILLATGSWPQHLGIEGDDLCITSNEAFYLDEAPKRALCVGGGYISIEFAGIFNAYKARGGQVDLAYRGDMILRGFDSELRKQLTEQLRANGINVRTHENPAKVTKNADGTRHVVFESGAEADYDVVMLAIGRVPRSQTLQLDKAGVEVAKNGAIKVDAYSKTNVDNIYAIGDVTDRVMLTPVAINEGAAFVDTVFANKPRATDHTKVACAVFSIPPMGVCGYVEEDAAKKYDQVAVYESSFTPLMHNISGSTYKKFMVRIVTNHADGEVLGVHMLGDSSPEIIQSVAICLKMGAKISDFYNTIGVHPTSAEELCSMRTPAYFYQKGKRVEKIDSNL
Description: (§2) Trypanothione disulfide reductase activity is assayed spectrophotometrically by monitoring substrate-dependent oxidation of NADPH at 340 nm. Alternatively, enzyme activity is monitored by coupling radical formation to cytochrome C reduction and measuring absorbance changes (ε550 =21 mM^-1). Absorbance changes are monitored on a spectrophotometer with a thermostated cuvette chamber. Enzyme concentration is measured spectrophotometrically using the extinction coefficient (ε464 =11.3 mM^-1, Shames et al., Biochemistry, 25, 3519-3526 (1986). Kinetic runs are carried out at 27° C. in 0.1M 4-(2-hydroxyethyl)1-piperazineethane sulfonic acid (HEPES) buffer, pH 7.8, containing 0.1 mM EDTA and 0.25 mM NADPH. Anaerobic measurements are performed in rubber stoppered cuvettes that have been flushed repeatedly with helium. All buffers and solutions used in the assays are treated in this manner. Additions to the cuvette are made with a microsyringe piercing the septum.
Assays are carried out in 0.1M HEPES, pH 7.8, containing 1 mM EDTA, 0.15 mM […], 500 pmoles/ml trypanothione reductase and 10 μM nitrofuran VIII. Reactions are started by addition of enzyme (80 μl to a 2 ml assay). Sequential spectra (200-800 nm) are collected at 20 sec intervals using a UV/Vis spectrophotometer. At the end of the experiment, the assay mixtures are dialyzed and trypanothione reductase is assayed using 250 μM T(S)2. […]

[2] = target: trypanothione reductase from C. fasciculata (Crithidia fasciculata, UniProt P39040); test: Enzymatic reduction of compounds as substrates of trypanothione reductase (NADPH oxidation, cytochrome C coupled assay); type: biochemical; details: aerobic
trypanothione reductase from C. fasciculata, sequence (P39040 whole entry): as above
Description: FIG. 2 is a graph of the results of the enzymatic reduction of compounds C, D and E of the present invention and comparative prior art compounds as a function of substrate concentration. Relative rates were measured under aerobic conditions by coupling superoxide production to cytochrome C reduction as described.
as §2, with “septum. […]” for “septum.”

[3] = 0.5 μM, 3 hours pre-incubation at 37° C., HSVSM cells
[4] = 1 μM, 3 hours pre-incubation at 37° C., HSVSM cells
[5] = 5 μM, 3 hours pre-incubation at 37° C., HSVSM cells
[6] = 10 μM, 3 hours pre-incubation at 37° C., HSVSM cells

## CC(CCC1=C(CCC(C)=NNC(=N)N)C(=O)c2ccccc2C1=O)=NNC(=N)N.Cl.Cl [Compound A, 2,3-Bis(3-(2-amidinohydrazono)butyl)-1,4-naphthoquinone dihydrochloride]
[1]; [3]
  percent of cells infected relative to untreated control at 0.5 µM: 14%
[1]; [4]
  percent of cells infected relative to untreated control at 1 µM: 0%
[1]; [5]
  percent of cells infected relative to untreated control at 5 µM: 0%
[1]; [6]
  percent of cells infected relative to untreated control at 10 µM: 0%
trypomastigotes; 1 μM
  Trypomastigotes/ml counted swimming above the HSVM cell monolayer: 4.10 × 10^7 Trypomastigotes/ml
trypomastigotes; 10 μM
  Trypomastigotes/ml counted swimming above the HSVM cell monolayer: 1.35 × 10^7 Trypomastigotes/ml

## 2-(5-Nitro-2-furanylmethylidene)-N-[3-(4-methylpiperidin-1-yl)propyl]hydrazinecarboximidamide trihydrobromide [Compound D]
[1]; [3]
  percentage of cells infected by pre-treated trypomastigotes relative to untreated controls: 64%
[1]; [4]
  percentage of cells infected by pre-treated trypomastigotes relative to untreated controls: 35%
[1]; [5]
  percentage of cells infected by pre-treated trypomastigotes relative to untreated controls: 0%
[1]; [6]
  percentage of cells infected by pre-treated trypomastigotes relative to untreated controls: 0%
trypomastigotes; 1 μM
  Trypomastigotes/ml counted swimming above the HSVM cell monolayer: 1.80 × 10^7 Trypomastigotes/ml
trypomastigotes; 10 μM
  Trypomastigotes/ml counted swimming above the HSVM cell monolayer: < 2.00 × 10^4 Trypomastigotes/ml

## N=C(NCCCN1CCN(CCCNC(=N)NN=Cc2ccc([N+](=O)[O-])o2)CC1)NN=Cc1ccc([N+](=O)[O-])o1 [Compound E, 2,2'-Bis(5-nitro-2-furanylmethylidene)-N,N'-[1,4-piperazinediylbis(3,1-propanediyl)]-bishydrazinecarboximidamide tetrahydrobromide]
[1]; 3 h
  percent of cells infected relative to untreated control at 0.5 µM: 100%
  percent of cells infected relative to untreated control at 1 µM: 0%
  percent of cells infected relative to untreated control at 5 µM: 0%
  percent of cells infected relative to untreated control at 10 µM: 0%
trypomastigotes; 1 μM
  Trypomastigotes/ml counted swimming above the HSVM cell monolayer: 1.85 × 10^7 Trypomastigotes/ml
trypomastigotes; 10 μM
  Trypomastigotes/ml counted swimming above the HSVM cell monolayer: 2.85 × 10^7 Trypomastigotes/ml
Trypanothione reductase
  inhibition at 10 µM: 93%

## NC(=O)N/N=C/c1ccc([N+](=O)[O-])o1 [nitrofurazone]
[2]
  trypanothione reductase-catalyzed reduction monitored by NADPH oxidation: could be detected

## N=C(N)NN=Cc1ccc([N+](=O)[O-])o1 [Guanofuracin, reference compound]
[1]; 3 h
  percent of cells infected relative to untreated control at 0.5 µM: 100%
  percent of cells infected relative to untreated control at 1 µM: 45%
  percent of cells infected relative to untreated control at 5 µM: 0%
  percent of cells infected relative to untreated control at 10 µM: 0%

## CC1CS(=O)(=O)CCN1/N=C/c1ccc([N+](=O)[O-])o1 (stereo not drawn) [Nifurtimox, reference compound]
[1]; 3 h
  percent of cells infected relative to untreated control at 0.5 µM: 100%
  percent of cells infected relative to untreated control at 1 µM: 100%
  percent of cells infected relative to untreated control at 5 µM: 10%
  percent of cells infected relative to untreated control at 10 µM: 4%
[2]
  trypanothione reductase-catalyzed reduction monitored by NADPH oxidation: could be detected

## CC(CCC1=C(C)C(=O)c2ccccc2C1=O)=NNC(=N)N [Compound B, hydrochloride]
[1]; [3]
  percent of cells infected relative to untreated control at 0.5 µM: 100%
[1]; [4]
  percent of cells infected relative to untreated control at 1 µM: 100%
[1]; [5]
  percent of cells infected relative to untreated control at 5 µM: 21%
[1]; [6]
  percent of cells infected relative to untreated control at 10 µM: 8%
